According to patent US10550143B2, “C,O-spiro aryl glycoside compounds, preparation therefor and use thereof” (SHANGHAI INSTITUTE OF MATERIA MEDICA, CHINESE ACADEMY OF …, priority 2015, dated 2020):

What was measured:
[1] = molecular target: T1, human sodium-glucose cotransporter 2 (SGLT2) (Homo sapiens, UniProt P31639); assay: In vitro SGLT2 inhibition, methyl-α-D-[U-14C]glucopyranoside uptake in NIH3T3-hSGLT2 cells; format: cell-based; settings: for Selectivity: IC50 SGLT1/IC50 SGLT2; for inhibition at 0.01 µM: SGLT2, 10 nM, read-out: % Inhibition rate ± SD 10 nM; for inhibition at 0.1 µM: SGLT2, 100 nM, read-out: % Inhibition rate ± SD 100 nM; for IC50: read-out: IC50 ± SD SGLT2
T1 construct: expressed in transfected cells; host or cells: NIH3T3 (mouse fibroblast) cells expressing hSGLT2
T1 sequence (P31639 1-672): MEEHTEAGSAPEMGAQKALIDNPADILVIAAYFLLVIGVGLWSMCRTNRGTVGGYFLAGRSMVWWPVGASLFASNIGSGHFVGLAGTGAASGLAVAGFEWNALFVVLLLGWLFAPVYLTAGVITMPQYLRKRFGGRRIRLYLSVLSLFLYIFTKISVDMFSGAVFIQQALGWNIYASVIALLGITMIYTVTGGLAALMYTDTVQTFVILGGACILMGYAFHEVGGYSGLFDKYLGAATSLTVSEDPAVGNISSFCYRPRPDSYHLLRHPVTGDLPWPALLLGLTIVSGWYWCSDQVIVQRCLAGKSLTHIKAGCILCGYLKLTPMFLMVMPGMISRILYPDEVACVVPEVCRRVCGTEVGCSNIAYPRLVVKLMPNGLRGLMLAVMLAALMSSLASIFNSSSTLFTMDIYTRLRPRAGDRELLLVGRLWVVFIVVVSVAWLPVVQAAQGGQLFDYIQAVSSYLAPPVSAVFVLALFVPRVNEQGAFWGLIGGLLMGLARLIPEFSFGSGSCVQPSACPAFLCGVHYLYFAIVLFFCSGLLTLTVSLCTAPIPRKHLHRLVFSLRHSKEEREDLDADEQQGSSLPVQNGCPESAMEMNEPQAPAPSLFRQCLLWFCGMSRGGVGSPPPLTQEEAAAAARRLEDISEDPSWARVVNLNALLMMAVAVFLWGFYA
Method: Inhibition of the compounds of formula I against human sodium-glucose cotransporter 2 (SGLT2) was determined experimentally and the experimental procedures were carried out as reference^1.
Methyl-α-D-[U-^14C] glucopyranoside (Perkin Elmer) Dimethylsulfoxide (Genebase, Prod No: 0231)
(1) Primary screening of hSGLT2 are conducted with two concentrations, 100 nM and 10 nM;
SGLT2 transports D-glucose at 1:1 sodium-glucose ratio, glucose is replaced by the non-metabolic and isotope labeled methyl-aD-[U-^14C] glucopyranoside and methyl-aD-glucopyranoside, and the amount of isotope transferred into the cells was determined.
1) 0.2% gelatin in a 96-well plate was put in a 37° C. incubator for further use;
2) NIH3T3-hSGLT2 cells were injected into 96-well plates, 40000/well, and 100 μL culture medium per well:
3) the fluid was changed in the next day, and sodium butyrate was added into medium at a final concentration of 2 mM;
4) wash the cells with 100 μL of KRH—Na^+ for 3 times and incubate cells with 50 μL for 30 minutes. Cells were changed to 50 μL of compound in KRH—Na^+, uptake buffer (KRH—Na^+ and methyl-α-D-[U-^14C]glucopyranoside and ⅙ mM methyl-α-D-glucopyranoside at 10 μL per well) was added; KRH-acetylcholine solution was used as background control instead of KRH-Na^+
5) washed with 100 μL PBS for 3 times, dried, 50 μL lysate and 150 μL scintillation fluid were added, the membrane was covered and flattened, shaken on a shaker to mix thoroughly, centrifuged at 1500 rpm at 4° C. for 3 min, taken out and read;
6) the results were analyses.
The inhibition rate (% Inhibiton) of each sample at each concentration was calculated by dividing the value of the compound well value minus the background value by the value of the DMSO control well value minus the background value.
IC50 is calculated as follows: […]
The y value is the activity or inhibition percent, the x value is the concentration of the corresponding compound, top (the maximum y value of the curve), bottom (the minimum y value of the curve).

[2] = molecular target: T2, hSGLT1 (Homo sapiens, UniProt P13866); assay: In vitro SGLT1 inhibition (hSGLT1 IC50 test); format: cell-based; settings: read-out: IC50 ± SD SGLT1
T2 sequence (P13866 1-664): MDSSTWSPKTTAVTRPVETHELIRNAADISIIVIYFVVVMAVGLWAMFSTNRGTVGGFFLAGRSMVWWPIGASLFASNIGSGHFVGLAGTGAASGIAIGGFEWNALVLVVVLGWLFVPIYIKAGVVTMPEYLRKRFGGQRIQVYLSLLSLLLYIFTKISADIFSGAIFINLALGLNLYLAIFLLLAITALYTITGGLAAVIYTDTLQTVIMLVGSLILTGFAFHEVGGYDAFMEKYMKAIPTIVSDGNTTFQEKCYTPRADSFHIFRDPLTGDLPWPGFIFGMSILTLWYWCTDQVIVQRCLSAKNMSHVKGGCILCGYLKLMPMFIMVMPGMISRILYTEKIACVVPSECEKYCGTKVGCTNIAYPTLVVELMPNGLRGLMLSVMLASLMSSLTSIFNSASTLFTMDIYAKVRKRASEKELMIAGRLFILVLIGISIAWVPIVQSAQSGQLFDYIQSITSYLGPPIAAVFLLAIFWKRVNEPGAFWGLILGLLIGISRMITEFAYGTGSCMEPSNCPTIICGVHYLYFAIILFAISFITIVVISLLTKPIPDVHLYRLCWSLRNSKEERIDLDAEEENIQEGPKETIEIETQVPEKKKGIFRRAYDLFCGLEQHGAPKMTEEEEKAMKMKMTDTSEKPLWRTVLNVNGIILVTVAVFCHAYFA

SMILES	Selectivity [1]	inhibition at 0.01 µM [1] [%]	inhibition at 0.1 µM [1] [%]	IC50 [1] [nM]	IC50 [2] [nM]
CCc1ccc(Cc2ccc3c(c2)[C@]2(OC3)O[C@H](C)[C@@H](O)[C@H](O)[C@H]2O)cc1 [Example A2, (1S,3′R,4′S,5′S,6′R)-6′-methyl-6-(4-ethylbenzyl)-3′,4′,5′,6′-tetrahydro-3H-spiro[isobenzofuran-1,2′-pyran]-3′,4′,5′-triol]	351	51.4 ± 2.1	62.6 ± 2	63.5 ± 7.1	22300 ± 4260
CCc1ccc(Cc2cc3c(cc2Cl)CO[C@]32O[C@H](C)[C@@H](O)[C@H](O)[C@H]2O)cc1 [Example A22, (1S,3′R,4′S,5′S,6′R)-6′-methyl-6-(4-ethylbenzyl)-5-chloro-3′,4′,5′,6′-tetrahydro-3H-spiro[isobenzofuran-1,2′-pyran]-3′,4′,5′-triol]	13	25 ± 3.1	79.8 ± 8.5	29.7 ± 18.4	410 ± 50
CCOc1ccc(Cc2cc3c(cc2Cl)CO[C@]32O[C@H](C)[C@@H](O)[C@H](O)[C@H]2O)cc1 [Example A26, (1S,3′R,4′S,5′S,6′R)-6′-methyl-6-(4-ethoxybenzyl)-5-chloro-3′,4′,5′,6′-tetrahydro-3H-spiro[isobenzofuran-1,2′-pyran]-3′,4′,5′-triol]	58	51.5 ± 10.7	90.5 ± 4.1	15.7 ± 2.1	920 ± 90
C[C@H]1O[C@]2(OCc3cc(Cl)c(Cc4cc5ccccc5s4)cc32)[C@H](O)[C@@H](O)[C@@H]1O [Example A35, (1S,3′R,4′S,5′S,6′R)-6′-methyl-6-(benzo[b]thiophene-2-methyl)-5-chloro-3′,4′,5′,6′-tetrahydro-3H-spiro[isobenzofuran-1,2′-pyran]-3′,4′,5′-triol]	81	22.4 ± 7.5	95.7 ± 2	24 ± 2.4	1950 ± 130
C[C@H]1O[C@]2(OCc3cc(Cl)c(Cc4cc5ccccc5o4)cc32)[C@H](O)[C@@H](O)[C@@H]1O [Example A36, (1S,3′R,4′S,5′S,6′R)-6′-methyl-6-(benzo[b]furan-2-methyl)-5-chloro-3′,4′,5′,6′-tetrahydro-3H-spiro[isobenzofuran-1,2′-pyran]-3′,4′,5′-triol]	166	24.4 ± 8.8	103 ± 3.7	32.4 ± 8.2	5400 ± 660
